According to BindingDB's records for doi:10.7270/Q2M32T6M (Vanderbilt Screening Center for GPCRs, Ion Channels and …, 2009):

The molecules below were run against T1, Solute carrier family 12 member 5 (Homo sapiens, UniProt Q9H2X9) (assay: KCC2 modulator potency by thallium flux, dose response, cell-based, HEK293 KCC2, FluoZin-2 fluorescence (AID 1736)). Details: not given.
T1 sequence (Q9H2X9 whole entry): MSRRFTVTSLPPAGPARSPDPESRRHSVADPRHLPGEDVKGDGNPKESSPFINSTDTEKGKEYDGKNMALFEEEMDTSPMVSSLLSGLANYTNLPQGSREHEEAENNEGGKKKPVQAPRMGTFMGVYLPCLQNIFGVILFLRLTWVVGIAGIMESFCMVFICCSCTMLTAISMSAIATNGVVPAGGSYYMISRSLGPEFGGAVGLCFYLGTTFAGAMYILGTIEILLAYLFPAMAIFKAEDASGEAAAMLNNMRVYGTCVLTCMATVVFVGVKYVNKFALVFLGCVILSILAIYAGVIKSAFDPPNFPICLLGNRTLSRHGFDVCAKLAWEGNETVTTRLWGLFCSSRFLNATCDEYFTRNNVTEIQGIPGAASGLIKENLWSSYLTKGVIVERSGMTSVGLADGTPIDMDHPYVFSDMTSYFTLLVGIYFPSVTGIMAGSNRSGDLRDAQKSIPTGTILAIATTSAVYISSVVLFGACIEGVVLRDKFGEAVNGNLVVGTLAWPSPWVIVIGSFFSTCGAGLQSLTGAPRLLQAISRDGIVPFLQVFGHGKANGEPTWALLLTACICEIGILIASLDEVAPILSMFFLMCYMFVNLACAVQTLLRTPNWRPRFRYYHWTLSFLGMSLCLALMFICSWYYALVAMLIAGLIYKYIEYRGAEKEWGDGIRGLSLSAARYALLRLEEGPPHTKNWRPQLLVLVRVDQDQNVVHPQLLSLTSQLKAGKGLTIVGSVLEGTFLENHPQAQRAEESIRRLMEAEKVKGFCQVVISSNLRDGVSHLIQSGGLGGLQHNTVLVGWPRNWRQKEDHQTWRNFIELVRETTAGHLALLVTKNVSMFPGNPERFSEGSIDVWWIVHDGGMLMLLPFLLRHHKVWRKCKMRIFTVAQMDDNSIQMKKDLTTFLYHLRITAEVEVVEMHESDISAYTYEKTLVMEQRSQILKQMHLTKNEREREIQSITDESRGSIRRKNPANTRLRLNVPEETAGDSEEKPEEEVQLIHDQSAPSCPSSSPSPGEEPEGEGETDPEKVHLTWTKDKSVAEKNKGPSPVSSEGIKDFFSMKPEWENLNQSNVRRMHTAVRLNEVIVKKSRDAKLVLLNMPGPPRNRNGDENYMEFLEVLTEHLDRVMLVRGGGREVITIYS

Structure (SMILES)	EC50 [µM]
O=C(CSc1nccc(=O)[nH]1)N1CCc2ccccc2C1 [SMR000124078]	17.1
Cc1ccc(-c2noc(CN3CCN(Cc4ccccc4)CC3)n2)cc1 [1-benzyl-4-{[3-(4-methylphenyl)-1,2,4-oxadiazol-5-yl]methyl}piperazine]	7.58
Sc1nnc(Nc2ccccc2)s1 [5-anilino-3H-1,3,4-thiadiazole-2-thione]	633
Cc1ccc(/C=C2\SC(=S)N(c3c(C)n(C)n(-c4ccccc4)c3=O)C2=O)cc1 [3-(1,5-dimethyl-3-oxo-2-phenyl-2,3-dihydro-1H-pyrazol-4-yl)-5-(4-methylbenzylidene)-2-thioxo-1,3-thiazolidin-4-one]	2.3
CC(=O)NCCC(=O)N1CCCC(CNC(=O)c2ccc(-c3ccccc3)cc2)C1 (centres undefined) [MLS000733794]	38.4
Cc1noc(/C=C/c2ccco2)c1S(=O)(=O)N1CCC(C(=O)N2CCc3ccccc3C2)CC1 [2-{[1-({5-[(E)-2-(2-furyl)vinyl]-3-methylisoxazol-4-yl}sulfonyl)piperidin-4-yl]carbonyl}-1,2,3,4-tetrahydroisoquinoline]	3.86
COc1ccc(NC(=S)NC(N)=Nc2nc(C)c3ccccc3n2)cc1 [(1E)-1-[amino-[(4-methyl-2-quinazolinyl)amino]methylidene]-3-(4-methoxyphenyl)thiourea]	2.8
O=C(c1ccc(-c2ccccc2)cc1)C1CCCN(Cc2ccncc2)C1 (centres undefined) [(4-phenylphenyl)-[1-(4-pyridylmethyl)-3-piperidyl]methanone]	4.61
O=C(NCc1cccnc1)c1ccc(COc2ccccc2Br)o1 [5-[(2-bromanylphenoxy)methyl]-N-(pyridin-3-ylmethyl)furan-2-carboxamide]	13.8
CC(C)(CN=C(S)NCCc1ccccc1)CN=C(S)NCCc1ccccc1 [1-[2,2-dimethyl-3-(2-phenylethylcarbamothioylamino)propyl]-3-(2-phenylethyl)thiourea]	16.7
Cc1c(C(=O)NCCSCc2ccc(F)cc2)cnn1-c1ccc(Cl)cc1 [1-(4-chlorophenyl)-N-[2-[(4-fluorobenzyl)thio]ethyl]-5-methyl-pyrazole-4-carboxamide]	471
CCCn1c(N)c(C(=O)CSc2nnc(Cc3ccccc3)o2)c(=O)n(C)c1=O [6-amino-3-methyl-5-[1-oxo-2-[[5-(phenylmethyl)-1,3,4-oxadiazol-2-yl]thio]ethyl]-1-propylpyrimidine-2,4-dione]	0.00466
CC1CCCCN1C(=O)CSc1nnc(-c2c[nH]c3ccccc23)o1 (centres undefined)	15.2
O=C1OC(c2ccc(O)cc2)(c2ccc(O)cc2)c2ccccc21	1.8
O=C(Cn1cnc2c(nnn2Cc2ccc(F)cc2)c1=O)N1CCN(c2ccccc2)CC1 [3-(4-fluorobenzyl)-6-[2-keto-2-(4-phenylpiperazino)ethyl]triazolo[4,5-d]pyrimidin-7-one]	1.65
Cc1ccc(S(=O)(=O)N(CCC(=O)O)Cc2ccc(Cl)cc2)cc1 [3-[(4-chlorobenzyl)-tosyl-amino]propionic acid]	2.69
Cc1cc(C(=O)COC(=O)CCc2nc3ccccc3s2)c(C)n1C [3-(1,3-benzothiazol-2-yl)propanoic acid [2-oxo-2-(1,2,5-trimethyl-3-pyrrolyl)ethyl] ester]	1.94
Fc1ccc(CSc2nncn2NC/C=C/c2ccccc2)cc1 [3-[(4-fluorobenzyl)thio]-N-(3-phenyl-2-propen-1-yl)-4H-1,2,4-triazol-4-amine]	4.5

Structure (SMILES)	EC50 [µM]
CCCCCN1C/C=C\C(c2ccc(OC)cc2)N(Cc2ccc(F)cc2)C(=O)C1 (centres undefined) [(6Z)-1-amyl-4-(4-fluorobenzyl)-5-(4-methoxyphenyl)-5,8-dihydro-2H-1,4-diazocin-3-one]	8.78
CC1Cc2ccccc2N1C(=O)c1ccc(N2CCCCC2)c([N+](=O)[O-])c1 (centres undefined) [(2-methyl-2,3-dihydroindol-1-yl)-(3-nitro-4-piperidin-1-yl-phenyl)methanone]	0.632
CSc1ccccc1N=C(S)Nc1ccc(S(N)(=O)=O)cc1 [1-(2-methylsulfanylphenyl)-3-(4-sulfamoylphenyl)thiourea]	12.8
O=S(=O)(NC1CCCC1)c1cccc(S(=O)(=O)N2CCC(n3nnc4ccccc43)CC2)c1 [3-(4-Benzotriazol-1-yl-piperidine-1-sulfonyl)-N-cyclopentyl-benzenesulfonamide]	4.05
O=C(Nc1cccnc1)c1ccc(COc2cc(Cl)ccc2Cl)o1 [5-[(2,5-dichlorophenoxy)methyl]-N-(3-pyridinyl)-2-furancarboxamide]	3.88
O=C(c1ccc(N2CCCCCC2)c([N+](=O)[O-])c1)N1CCc2ccccc21 [1-(4-azepan-1-yl-3-nitrobenzoyl)indoline]	7.56
O=C(NC(=S)NNC(=O)c1cnccn1)c1ccc(Cl)cc1 [4-Chloro-N-[N'-(pyrazine-2-carbonyl)-hydrazinocarbothioyl]-benzamide]	9.74
Cc1ccc(Cn2c(SCC(=O)Nc3cc(C)on3)nc3ccccc3c2=O)cc1 [2-[[4-keto-3-(4-methylbenzyl)quinazolin-2-yl]thio]-N-(5-methylisoxazol-3-yl)acetamide]	65.1
O=C(OCC(=O)N1CCN(C(=O)c2ccco2)CC1)c1sc2ccccc2c1Cl [3-chloro-1-benzothiophene-2-carboxylic acid [2-[4-[2-furanyl(oxo)methyl]-1-piperazinyl]-2-oxoethyl] ester]	1.6
Cc1ccc(C(=O)Nc2nc(=O)n(C(=O)c3ccccc3Cl)s2)cc1 [MLS000540480]	3
CC(C)CCNC(=O)COC(=O)/C=C/c1ccc2ccccc2n1 [(E)-3-(2-quinolinyl)-2-propenoic acid [2-(3-methylbutylamino)-2-oxoethyl] ester]	2.3
O=C(c1ccc(S(=O)(=O)c2cccc(Cl)c2)c([N+](=O)[O-])c1)N1CCN(c2ccccn2)CC1 [1-{4-[(3-chlorophenyl)sulfonyl]-3-nitrobenzoyl}-4-pyridin-2-ylpiperazine]	2.55
CS(=O)(=O)N(CC(=O)N1CCN(c2ccccc2)CC1)c1cccc(Br)c1 [MLS000110474]	3.74
CNC(=O)/C(=C\C=C\c1ccccc1)NC(=O)c1ccc([N+](=O)[O-])cc1 [MLS000570424]	3.38
O=C(CSc1nnc(-c2ccc(O)cc2)n1Cc1ccco1)N1CCc2ccccc2C1 [1-(3,4-Dihydro-1H-isoquinolin-2-yl)-2-[4-furan-2-ylmethyl-5-(4-hydroxy-phenyl)-4H-[1,2,4]triazol-3-ylsulfanyl]-ethanone]	5.59
C=C(C)Cn1c(N2CCC(Cc3ccccc3)CC2)nc2c1c(=O)[nH]c(=O)n2C [3-methyl-7-(2-methylprop-2-enyl)-8-[4-(phenylmethyl)-1-piperidinyl]purine-2,6-dione]	15.8
O=C(NNc1nc(-c2ccccc2)cs1)c1cccs1 [MLS000858987]	0.189
N#Cc1nc(Cc2cccc3ccccc23)oc1NCCN1CCOCC1 [5-(2-Morpholin-4-yl-ethylamino)-2-naphthalen-1-ylmethyl-oxazole-4-carbonitrile]	9.4

Same assay, conditions: inactive by the depositor's call

Structure (SMILES)	EC50 [µM]
CC1=C(C(=O)OCCOc2ccccc2)C(c2ccsc2)NC(=O)N1C (centres undefined) [2-phenoxyethyl 3,4-dimethyl-2-oxo-6-thiophen-3-yl-1,6-dihydropyrimidine-5-carboxylate]	61.2
COc1cccc(C2c3c(oc4ccc(F)cc4c3=O)C(=O)N2CCCN2CCOCC2)c1 (centres undefined) [7-fluoranyl-1-(3-methoxyphenyl)-2-(3-morpholin-4-ylpropyl)-1H-chromeno[2,3-c]pyrrole-3,9-dione]	69.9
Cc1ccc(S(=O)(=O)NCc2ccc(C(=O)N3CCN(Cc4ccccc4)CC3)cc2)cc1 [4-methyl-N-[[4-[4-(phenylmethyl)piperazin-1-yl]carbonylphenyl]methyl]benzenesulfonamide]	6.59
S=c1nc(-c2ccc3c(c2)CCO3)cc[nH]1	16.7
CCc1ccc(-c2nc(C[S+]([O-])CC(=O)NCc3cccnc3)c(C)o2)cc1 (centres undefined) [2-({[2-(4-ethylphenyl)-5-methyl-1,3-oxazol-4-yl]methyl}sulfinyl)-N-(pyridin-3-ylmethyl)acetamide]	38.3
Cc1[nH][nH]c(=O)c1C(c1ccc(-c2ccc(Cl)c(Cl)c2)o1)c1c(C)[nH][nH]c1=O	130
O=C(/C=C/c1cccs1)Nc1scc(-c2ccccc2)c1C(=O)O [SMR000364116]	29
O=C(CSc1nnc(CNc2ccccc2)o1)c1ccc2c(c1)OCCO2 [1-(2,3-Dihydro-benzo[1,4]dioxin-6-yl)-2-(5-phenylaminomethyl-[1,3,4]oxadiazol-2-ylsulfanyl)-ethanone]	2.09
